This passage reports Kd results from PubChem BioAssay AID1549 (Sanford-Burnham Center for Chemical Genomics, 2009).

The source made the active and inactive calls. The rule behind the calls is not given here.

For this experiment, the target named is Influenza A virus M2 proton channel (A/TW/4845/1999 H1N1). Briefly: NMR binding screen, influenza A virus M2 proton channel, Kd (AID 1549). The settings on record: M2 protein.
`Oc1ccc(C(=S)N2CCOCC2)cc1`: the Kd (usually the concentration at which binding is half-saturated) was > 4 mM (inactive).
Under `Cc1ccccc1OCC(=O)O` stands > 4 mM (inactive); under `C=C1CCC2C(CC2(C)C)C(=C)CC/C1=N/O` (configuration not stated), > 4 mM (inactive).
Then `OCC1COc2ccccc2C1` (configuration not stated), with > 4 mM (inactive).
On to `O=C(O)c1cc(O)c2c(c1)[C@@H]([C@H]1c3cc(C(=O)O)cc(O)c3C(=O)c3c(O[C@H]4O[C@H](CO)[C@@H](O)[C@H](O)[C@H]4O)cccc31)c1cccc(O[C@H]3O[C@H](CO)[C@@H](O)[C@H](O)[C@H]3O)c1C2=O`, for which the Kd was > 4 mM (inactive).
Then `NC(=S)NC(=O)CN1C(=O)c2ccccc2C1=O`, with > 4 mM (inactive); and `Cc1cc2ncc(C(=O)Nc3ccccc3)c(C)n2n1`, with > 4 mM (inactive).
Regarding `c1ccc(CCc2nc(-c3ccncc3)no2)cc1`, the Kd is > 4 mM (inactive).
As for `ON=c1ccc2nc3ccccc3nc2cc1`, the Kd is > 4 mM (inactive).
Turning to `COCC(=O)Nc1nc2ccc(C)cc2s1`, the Kd is > 4 mM (inactive).
Then `NCc1ccccc1N1CCOCC1`, with > 4 mM (inactive).
Then `COC(=O)c1[nH]c2ccccc2c1C(=O)OC`, with > 4 mM (inactive); and `NNC(=O)c1ccccc1-n1cccc1`, with > 4 mM (inactive).
Then `Cc1noc(C)c1C(=O)NCc1ccco1`, with > 4 mM (inactive); and `NC(=O)C1CCN(C(=S)c2ccccc2)CC1`, with > 4 mM (inactive); and `O=C1CCCN1C(=O)c1ccc(F)cc1`, with > 4 mM (inactive).
Regarding `CSc1nnc(-c2ccccc2NC(C)=O)o1`, the Kd is > 4 mM (inactive).
Then `O=C1c2ccc(F)cc2C(=O)N1CO`, with > 4 mM (inactive).
On to `Cc1ccsc1/C=c1\sc2ncnn2c1=O`, for which the Kd is > 4 mM (inactive).
Under `Nc1ccc(-c2cn3c(n2)SCC3)cc1` stands > 4 mM (inactive); under `Nc1ccc(-n2cncn2)cc1`, > 4 mM (inactive).
Under `COC(=O)c1sccc1S(=O)(=O)N1CCCC1` stands > 4 mM (inactive); under `CC(C)n1nnc2cc(C(=O)O)ccc21`, > 4 mM (inactive).
Under `NC(=O)Cn1cnc2ccccc21` stands > 4 mM (inactive).
Take `CN(C)S(=O)(=O)c1ccccc1C#N`: the Kd is > 4 mM (inactive).
Under `CC(=O)Oc1cc(OC(C)=O)c2c(c1)O[C@H](c1ccc(OC(C)=O)c(OC(C)=O)c1)[C@H](OC(C)=O)C2` stands > 4 mM (inactive); under `Nc1nnc(COc2cccc(C(F)(F)F)c2)s1`, > 4 mM (inactive); under `CNS(=O)(=O)c1ccc2[nH]c(=O)[nH]c2c1`, > 4 mM (inactive).
As to `COc1cc2c(cc1-c1cc3cc4ccoc4cc3oc1=O)OCO2`, the Kd was > 4 mM (inactive).
Under `Oc1cc(O)c2c(c1)O[C@H](c1cc(O)c(O)c(O)c1)[C@H](O)C2` stands > 4 mM (inactive); under `CSc1nc2cc(F)c(F)cc2n1C`, > 4 mM (inactive).
On to `C[C@@H]1CC[C@@]2(OC1)OC1C(O)C3C4CC[C@H]5C[C@H](O[C@@H]6O[C@H](CO)[C@H](O[C@@H]7O[C@H](CO)[C@@H](O)[C@H](O[C@@H]8OC[C@@H](O)[C@H](O)[C@H]8O)[C@H]7O[C@@H]7O[C@H](CO)[C@H](O)[C@H](O[C@@H]8O[C@H](CO)[C@@H](O)[C@H](O)[C@H]8O)[C@H]7O)[C@H](O)[C@H]6O)[C@H](O)C[C@]5(C)C4CC[C@]3(C)C1[C@@H]2C` (some centres not stated), for which the Kd is > 4 mM (inactive).
Under `NC(=O)CCN1C(=O)c2ccccc2C1=O` stands > 4 mM (inactive); under `CCCCN1C(=O)N(C)C2NC(=O)NC21` (configuration not stated), > 4 mM (inactive); under `COC(=O)CSc1nnc(-c2ccc(C(=O)O)cc2)o1`, > 4 mM (inactive).
Under `Cc1cc(O)c2c(c1O)C(=O)c1c(O)cc(C)c(O)c1C2=O` stands > 4 mM (inactive).
Under `O=C(C1CCNCC1)N1CCCCCC1` stands > 4 mM (inactive).
